In the supplement of paper PMC10307832:

Assays:
Assay in all cases: relative viability (nuclei count vs DMSO), 5 days (fraction); higher = more cells survive
[1] = compound: CCc1c2c(nc3ccc(OC(=O)N4CCC(N5CCCCC5)CC4)cc13)-c1cc3c(c(=O)n1C2)COC(=O)[C@]3(O)CC [Irinotecan] + CC1(C)CCC(c2ccc(Cl)cc2)=C(CN2CCN(c3ccc(C(=O)NS(=O)(=O)c4ccc(N[C@H](CCN5CCOCC5)CSc5ccccc5)c(S(=O)(=O)C(F)(F)F)c4)cc3)CC2)C1 [Navitoclax] (partner 0.5 µM)
Summary of the method: (§1)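 Lung cancer cell lines were pin-tool dosed in 1536-well plates on the day after seeding, with either a lone drug or a fixed anchor-drug dose plus five library-drug doses (not always all listed) in √10 steps. Nuclei were counted on 4× images after 5 days. Relative viability is the ratio of treated-well to vehicle-well nuclei counts, with each value a median of duplicate plates.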

[2] = compound: CCc1c2c(nc3ccc(OC(=O)N4CCC(N5CCCCC5)CC4)cc13)-c1cc3c(c(=O)n1C2)COC(=O)[C@]3(O)CC [Irinotecan] + Nc1nc2[nH]cc(CCc3ccc(C(=O)N[C@@H](CCC(=O)O)C(=O)O)cc3)c2c(=O)[nH]1 [Pemetrexed] (partner 0.2 µM)
Summary of the method: as §1

[3] = compound: CCc1c2c(nc3ccc(OC(=O)N4CCC(N5CCCCC5)CC4)cc13)-c1cc3c(c(=O)n1C2)COC(=O)[C@]3(O)CC [Irinotecan] + CC(=O)c1c(C)c2cnc(Nc3ccc(N4CCNCC4)cn3)nc2n(C2CCCC2)c1=O [Palbociclib] (partner 0.5 µM)
Summary of the method: as §1

[4] = compound: CC[C@@H](C)CNCC(=O)N1CCC2=C([C@@H]1COC3=CC=CC(=C3)C)C=CS2 [RU-SKI 43] + Cc1nc(Nc2ncc(C(=O)Nc3c(C)cccc3Cl)s2)cc(N2CCN(CCO)CC2)n1 [Dasatinib] (partner 0.075 µM)
Summary of the method: as §1

| Cell Line | relative viability ([1]; first compound 2 µM) | relative viability ([1]; first compound 6.325 µM) | relative viability ([1]; first compound 20 µM) | relative viability ([2]; first compound 0.6325 µM) | relative viability ([2]; first compound 2 µM) | relative viability ([2]; first compound 6.325 µM) | relative viability ([2]; first compound 20 µM) | relative viability ([3]; first compound 0.6325 µM) | relative viability ([3]; first compound 2 µM) | relative viability ([3]; first compound 6.325 µM) | relative viability ([3]; first compound 20 µM) | relative viability ([4]; first compound 0.1 µM) | relative viability ([4]; first compound 0.3162 µM) | relative viability ([4]; first compound 1 µM) | relative viability ([4]; first compound 3.162 µM) | relative viability ([4]; first compound 10 µM) | relative viability ([1]; first compound 0.6325 µM) |
| --- | --- | --- | --- | --- | --- | --- | --- | --- | --- | --- | --- | --- | --- | --- | --- | --- | --- |
| 201T | 1.12 | 0.729 | 0.451 | 0.274 | 0.308 | 0.271 | 0.283 | 0.403 | 0.343 | 0.265 | 0.22 | 0.565 | 0.547 | 0.624 | 0.627 | 0.56 |  |
| A549 | 0.639 | 0.118 | 0.0499 |  |  |  |  |  |  |  |  |  |  |  |  |  | 0.997 |
| A-427 | 0.222 | 0.215 | 0.172 | 0.884 | 1 | 0.396 | 0.229 | 0.499 | 0.487 | 0.292 | 0.132 | 0.823 | 0.656 | 0.693 | 0.718 | 0.643 |  |
| ABC-1 |  |  |  |  |  |  |  |  | 0.628 | 0.506 | 0.358 | 0.664 | 0.443 | 0.638 | 0.553 | 0.501 |  |
| BEN | 0.0844 | 0.0937 | 0.248 | 0.535 | 0.828 | 0.415 | 0.485 | 0.45 | 0.448 | 0.387 | 0.534 | 0.333 | 0.253 | 0.474 | 0.272 | 0.316 | 0.0453 |
| CAL-12T | 1.43 | 0.491 | 0.38 | 1.14 | 0.995 | 0.355 | 0.234 | 0.316 | 0.344 | 0.251 | 0.197 | 0.404 | 0.41 | 0.348 | 0.38 | 0.413 | 1.32 |
| COR-L23 | 0.261 | 0.154 | 0.115 | 0.181 | 0.178 | 0.204 | 0.165 | 0.155 | 0.218 | 0.184 | 0.105 | 0.461 | 0.491 | 0.55 | 0.445 | 0.443 | 0.413 |
| COR-L 105 | 0.766 | 0.529 | 0.463 | 1.35 | 0.93 | 0.649 | 0.442 | 0.407 | 0.395 | 0.454 | 0.3 | 0.323 | 0.259 | 0.304 | 0.36 | 0.335 | 0.721 |
| Calu-6 | 0.431 | 0.212 | 0.0896 |  |  |  |  |  |  |  |  |  |  |  |  |  | 0.78 |
| ChaGo-K-1 | 0.784 | 0.407 | 0.33 | 0.238 | 0.232 | 0.236 | 0.239 | 0.256 | 0.247 | 0.22 | 0.203 | 0.651 | 0.532 | 0.574 | 0.492 | 0.502 |  |
| EBC-1 | 0.406 | 0.378 | 0.133 |  |  |  |  |  |  |  |  |  |  |  |  |  | 0.304 |
| EKVX | 0.74 | 0.344 | 0.157 |  | 0.339 | 0.246 | 0.205 |  | 0.311 | 0.265 | 0.227 | 0.457 | 0.413 | 0.524 | 0.57 | 0.618 | 0.924 |
